Conditions: for mass density: 101.33 kPa, Buoyancy - hydrostatic balance; for mass density / surface tension liquid-gas: Liquid; for surface tension liquid-gas: Maximal bubble pressure

CCCC[n+]1ccccc1.[O]=[Re](=[O])(=[O])[O-] [1-butylpyridinium perrhenate]
Conditions	mass density [kg/m3]	surface tension liquid-gas [mN/m]
293.15 K	1910.1	41.6
298.15 K	1902.5	41.2
303.15 K	1894.9	40.7
308.15 K	1886.9	40.5
313.15 K	1881.8	40
318.15 K	1877.6	39.7
323.15 K	1869.2	39.4
328.15 K	1862.7	39
333.15 K	1856.9	38.6
338.15 K	1853.2	38.3
343.15 K	1846.8	38.2

Conditions	Glass transition temperature [°C]
Glass, DTA	-66
